Assay results from ChEMBL document CHEMBL6109078, “Pyrylium derivatives as outer membrane permeabilizers against MDR gram-negative bacteria via multi-target mode of action” (Eur J Med Chem, 2025).
Bridge positions count the residues as written; N and C are the ends. Square brackets hold non-standard residues; d marks the D form. Peptide text beside a SMILES is read from it. * marks the point of attachment. X1 = CC[C@H](C)CCCCC(=O)*; Dab = NCC[C@H](N)C(=O)O

Experiments:
[1] = system: Acinetobacter baumannii; assay: Antibacterial activity against Acinetobacter baumannii ATCC 19606 assessed as inhibition of bacterial growth by CLSI protocol based method; type: functional
[2] = system: Acinetobacter baumannii; assay: Antibacterial activity against Acinetobacter baumannii ATCC 19606 infected in Galleria mellonella larvae assessed as survival rate of larvae at 1 microg/ml measured after 96 hrs relative to control; type: functional
[3] = system: Acinetobacter baumannii; assay: Antibacterial activity against multi-drug resistant Acinetobacter baumannii clinical isolate 5 assessed as inhibition of bacterial growth by CLSI protocol based method; type: functional
[4] = system: Acinetobacter baumannii; assay: Antibacterial activity against multi-drug resistant Acinetobacter baumannii clinical isolate 4 assessed as inhibition of bacterial growth by CLSI protocol based method; type: functional
[5] = system: Acinetobacter baumannii; assay: Antibacterial activity against multi-drug resistant Acinetobacter baumannii clinical isolate 2 assessed as inhibition of bacterial growth by CLSI protocol based method; type: functional
[6] = system: Escherichia coli; assay: Antibacterial activity against Escherichia coli ATCC 25922 assessed as inhibition of bacterial growth by CLSI protocol based method; type: functional
[7] = system: Escherichia coli; assay: Antibacterial activity against ESBL positive Escherichia coli ATCC 35218 assessed as inhibition of bacterial growth by CLSI protocol based method; type: functional
[8] = system: Acinetobacter baumannii; assay: Antibacterial activity against multi-drug resistant Acinetobacter baumannii clinical isolate 51 assessed as inhibition of bacterial growth by CLSI protocol based method; type: functional
[9] = system: Escherichia coli; assay: Antibacterial activity against multi-drug resistant Escherichia coli clinical isolate 1 assessed as inhibition of bacterial growth by CLSI protocol based method; type: functional
[10] = system: Acinetobacter baumannii; assay: Antibacterial activity against multi-drug resistant Acinetobacter baumannii clinical isolate 14 assessed as inhibition of bacterial growth by CLSI protocol based method; type: functional
[11] = system: Escherichia coli; assay: Antibacterial activity against Escherichia coli ATCC 25922 infected in Galleria mellonella larvae assessed as survival rate of larvae at 1 microg/ml relative to control; type: functional
[12] = system: Pseudomonas aeruginosa; assay: Antibacterial activity Pseudomonas aeruginosa ATCC 27853 assessed as inhibition of bacterial growth by CLSI protocol based method; type: functional
[13] = system: Acinetobacter baumannii; assay: Antibacterial activity against multi-drug resistant Acinetobacter baumannii clinical isolate 10 assessed as inhibition of bacterial growth by CLSI protocol based method; type: functional
[14] = system: Acinetobacter baumannii; assay: Antibacterial activity against multi-drug resistant Acinetobacter baumannii clinical isolate 43 assessed as inhibition of bacterial growth by CLSI protocol based method; type: functional
[15] = system: Klebsiella pneumoniae; assay: Antibacterial activity against Klebsiella pneumoniae ATCC 700603 assessed as inhibition of bacterial growth by CLSI protocol based method; type: functional
[16] = system: Escherichia coli; assay: Antibacterial activity against Escherichia coli CG-4 expressing MCR-1 and NDM-1 assessed as inhibition of bacterial growth by CLSI protocol based method; type: functional
[17] = system: Acinetobacter baumannii; assay: Antibacterial activity against multi-drug resistant Acinetobacter baumannii clinical isolate 1 assessed as inhibition of bacterial growth by CLSI protocol based method; type: functional
[18] = system: Acinetobacter baumannii; assay: Synergistic antibacterial activity against multi-drug resistant Acinetobacter baumannii clinical isolate 43 assessed as fractional inhibitory concentration index in presence of polymyxin B by checkerboard assay; type: functional
[19] = system: Escherichia coli; assay: Synergistic antibacterial activity against Escherichia coli ATCC 25922 assessed as fractional inhibitory concentration index in presence of polymyxin B by checkerboard assay; type: functional
[20] = system: Escherichia coli; assay: Synergistic antibacterial activity against Escherichia coli ATCC 35218 assessed as fractional inhibitory concentration index in presence of polymyxin B by checkerboard assay; type: functional
[21] = system: Acinetobacter baumannii; assay: Synergistic antibacterial activity against multi-drug resistant Acinetobacter baumannii clinical isolate 43 assessed as inhibition of bacterial growth in presence of polymyxin B by checkerboard assay; type: functional
[22] = Binding affinity to His-tagged LptC (unknown origin) extracted from Escherichia coli BL21 (DE3) cells assessed as dissociation constant by BLI analysis; parameters: species or system Bacteria
[23] = Binding affinity to His-tagged LptA (unknown origin) extracted from Escherichia coli BL21 (DE3) cells assessed as dissociation constant by BLI analysis; parameters: species or system Bacteria
[24] = system: Escherichia coli; assay: Synergistic antibacterial activity against Escherichia coli CG-4 expressing MCR-1 and NDM-1 assessed as fractional inhibitory concentration index in presence of polymyxin B by checkerboard assay; type: functional
[25] = system: Escherichia coli; assay: Synergistic antibacterial activity against multi-drug resistant Escherichia coli clinical isolate 1 assessed as inhibition of bacterial growth by measuring polymyxin B MIC by checkerboard assay; type: functional
[26] = system: Pseudomonas aeruginosa; assay: Antibacterial activity Pseudomonas aeruginosa PAO1 assessed as inhibition of bacterial growth by CLSI protocol based method; type: functional
[27] = system: Acinetobacter baumannii; assay: Synergistic antibacterial activity against Acinetobacter baumannii ATCC 19606 assessed as inhibition of bacterial growth by measuring polymyxin B MIC by checkerboard assay; type: functional
[28] = system: Escherichia coli; assay: Synergistic antibacterial activity against multi-drug resistant Escherichia coli clinical isolate 1 assessed as inhibition of bacterial growth in presence of polymyxin B by checkerboard assay; type: functional
[29] = system: Escherichia coli; assay: Synergistic antibacterial activity against Escherichia coli ATCC 35218 assessed as inhibition of bacterial growth in presence of polymyxin B by checkerboard assay; type: functional
[30] = system: Escherichia coli; assay: Synergistic antibacterial activity against Escherichia coli ATCC 25922 assessed as inhibition of bacterial growth in presence of polymyxin B by checkerboard assay; type: functional
[31] = system: Acinetobacter baumannii; assay: Synergistic antibacterial activity against multi-drug resistant Acinetobacter baumannii clinical isolate 5 assessed as inhibition of bacterial growth by measuring polymyxin B MIC by checkerboard assay; type: functional
[32] = system: Escherichia coli; assay: Synergistic antibacterial activity against multi-drug resistant Escherichia coli clinical isolate 1 assessed as fractional inhibitory concentration index in presence of polymyxin B by checkerboard assay; type: functional
[33] = system: Acinetobacter baumannii; assay: Synergistic antibacterial activity against multi-drug resistant Acinetobacter baumannii clinical isolate 14 assessed as inhibition of bacterial growth by measuring polymyxin B MIC by checkerboard assay; type: functional
[34] = system: Acinetobacter baumannii; assay: Synergistic antibacterial activity against multi-drug resistant Acinetobacter baumannii clinical isolate 1 assessed as inhibition of bacterial growth by measuring polymyxin B MIC by checkerboard assay; type: functional
[35] = system: Escherichia coli; assay: Synergistic antibacterial activity against Escherichia coli CG-4 expressing MCR-1 and NDM-1 assessed as inhibition of bacterial growth by measuring polymyxin B MIC by checkerboard assay; type: functional
[36] = system: Acinetobacter baumannii; assay: Synergistic antibacterial activity against multi-drug resistant Acinetobacter baumannii clinical isolate 43 assessed as inhibition of bacterial growth by measuring polymyxin B MIC by checkerboard assay; type: functional
[37] = system: Escherichia coli; assay: Synergistic antibacterial activity against Escherichia coli ATCC 25922 assessed as inhibition of bacterial growth by measuring polymyxin B MIC by checkerboard assay; type: functional
[38] = system: Escherichia coli; assay: Synergistic antibacterial activity against Escherichia coli ATCC 35218 assessed as inhibition of bacterial growth by measuring polymyxin B MIC by checkerboard assay; type: functional; settings: Escherichia coli, ATCC 35218; read-out: MIC
[39] = system: Klebsiella pneumoniae; assay: Antibacterial activity against Klebsiella pneumoniae BAA ATCC 1706 assessed as inhibition of bacterial growth by CLSI protocol based method; type: functional
[40] = system: Acinetobacter baumannii; assay: Synergistic antibacterial activity against multi-drug resistant Acinetobacter baumannii clinical isolate 14 assessed as inhibition of bacterial growth in presence of polymyxin B by checkerboard assay; type: functional
[41] = system: Escherichia coli; assay: Synergistic antibacterial activity against Escherichia coli CG-4 expressing MCR-1 and NDM-1 assessed as inhibition of bacterial growth in presence of polymyxin B by checkerboard assay; type: functional
[42] = system: Acinetobacter baumannii; assay: Synergistic antibacterial activity against multi-drug resistant Acinetobacter baumannii clinical isolate 5 assessed as inhibition of bacterial growth in presence of polymyxin B by checkerboard assay; type: functional
[43] = system: Acinetobacter baumannii; assay: Synergistic antibacterial activity against Acinetobacter baumannii ATCC 19606 assessed as inhibition of bacterial growth in presence of polymyxin B by checkerboard assay; type: functional
[44] = system: Acinetobacter baumannii; assay: Synergistic antibacterial activity against Acinetobacter baumannii ATCC 19606 assessed as fractional inhibitory concentration index in presence of polymyxin B by checkerboard assay; type: functional
[45] = system: Acinetobacter baumannii; assay: Synergistic antibacterial activity against multi-drug resistant Acinetobacter baumannii clinical isolate 1 assessed as inhibition of bacterial growth in presence of polymyxin B by checkerboard assay; type: functional
[46] = system: Acinetobacter baumannii; assay: Synergistic antibacterial activity against multi-drug resistant Acinetobacter baumannii clinical isolate 1 assessed as fractional inhibitory concentration index in presence of polymyxin B by checkerboard assay; type: functional

**Q.** Which results are given for `CC(C)CCCCC(=O)N[C@@H](CCN)C(=O)N[C@H](C(=O)N[C@@H](CCN)C(=O)N[C@H]1CCNC(=O)[C@H]([C@@H](C)O)NC(=O)[C@H](CCN)NC(=O)[C@H](CCN)NC(=O)[C@H](CC(C)C)NC(=O)[C@@H](Cc2ccccc2)NC(=O)[C@H](CCN)NC1=O)[C@@H](C)O.CC[C@H](C)CCCCC(=O)N[C@@H](CCN)C(=O)N[C@H](C(=O)N[C@@H](CCN)C(=O)N[C@H]1CCNC(=O)[C@H]([C@@H](C)O)NC(=O)[C@H](CCN)NC(=O)[C@H](CCN)NC(=O)[C@H](CC(C)C)NC(=O)[C@@H](Cc2ccccc2)NC(=O)[C@H](CCN)NC1=O)[C@@H](C)O` (X1-[Dab]T[Dab][Dab][Dab][dF]L[Dab][Dab]T; lactam 4-C)?
**A.** MIC [1]: 0.05 µg/mL; survival at 1 µg/mL [2]: 20%; MIC [3]: 0.05 µg/mL; MIC [4]: 0.39 µg/mL; MIC [5]: 0.39 µg/mL; MIC [6]: 0.05 µg/mL; MIC [7]: 0.1 µg/mL; MIC [8]: 0.78 µg/mL; MIC [9]: 12.5 µg/mL; MIC [10]: 0.39 µg/mL; survival at 1 µg/mL [11]: 40%; MIC [12]: 6.25 µg/mL; MIC [13]: 0.05 µg/mL; MIC [14]: > 100 µg/mL; MIC [15]: 0.2 µg/mL; MIC [16]: 6.25 µg/mL; MIC [17]: > 100 µg/mL

**Q.** What does the source list for `CN(C)c1ccc(/C=C/c2cc(C(C)(C)C)[o+]c(C(C)(C)C)c2)cc1.O=S(=O)([O-])C(F)(F)F`?
**A.** fractional inhibitory concentration index (FICI) [18]: <0.25; MIC [1]: 12.5 µg/mL; fractional inhibitory concentration index (FICI) [19]: 0.266; fractional inhibitory concentration index (FICI) [20]: 0.375; MIC [21]: 12.5 µg/mL; MIC [3]: 50 µg/mL; Kd [22]: 17 µM; Kd [23]: 160 µM; fractional inhibitory concentration index (FICI) [24]: 0.188; MIC [25]: 0.2 µg/mL; MIC [26]: > 100 µg/mL; MIC [27]: 0.006 µg/mL; MIC [28]: 3.13 µg/mL; MIC [4]: 25 µg/mL; MIC [29]: 1.56 µg/mL; MIC [30]: 6.25 µg/mL; MIC [5]: 25 µg/mL; MIC [31]: 0.006 µg/mL; fractional inhibitory concentration index (FICI) [32]: 0.047; MIC [6]: 12.5 µg/mL; MIC [7]: 12.5 µg/mL; MIC [33]: 0.006 µg/mL; MIC [8]: 50 µg/mL; MIC [9]: 100 µg/mL; MIC [34]: 0.05 µg/mL; MIC [35]: 0.39 µg/mL; MIC [10]: 25 µg/mL; MIC [36]: 1 10^-4 ug/ml; MIC [37]: 7.8 10^-4 ug/ml; MIC [12]: > 100 µg/mL; MIC [38]: 0.25 µg/mL; MIC [39]: > 100 µg/mL; MIC [13]: 25 µg/mL; MIC [40]: 6.25 µg/mL; MIC [41]: 3.13 µg/mL; MIC [14]: 50 µg/mL; MIC [15]: > 100 µg/mL; MIC [42]: 12.5 µg/mL; MIC [16]: 25 µg/mL; MIC [43]: 1.56 µg/mL; fractional inhibitory concentration index (FICI) [44]: 0.188; MIC [45]: 3.13 µg/mL; MIC [17]: 100 µg/mL; fractional inhibitory concentration index (FICI) [46]: <0.032
